These results are taken from patent publication US11591342B2, “Heterocyclic compound, application thereof and pharmaceutical composition comprising same” (SUZHOU SINOVENT PHARMACEUTICALS CO., LTD., priority 2018, dated 2023).

The test system of one data set is LPA18:2 in mouse plasma. The data set can be described thus: Inhibition of LPA in mouse plasma (plasma LPA18:2 assay, LC-MS/MS). In kind it is biochemical, CD1 mice. Particulars: fresh CD1 mouse plasma, LPA18:2, 37° C. for 120 min. The protocol: Effect Example 2. Inhibition of LPA in Mouse Plasma by Compounds
20 mM stock solutions of the compounds were prepared with DMSO and then diluted to 1 mM, which was subjected to a serial 3-fold dilution to yield 10 working solutions.
Collection of Fresh Mouse Plasma:
CD1 mice were euthanized by CO2 inhalation. Approximately 1 mL of whole blood was taken by cardiac puncture, with EDTA-K2 for anticoagulation. The blood was centrifuged at 3220 g for 10 min at 4° C. for plasma collection.
Reactions were performed in a 96-well plate, and the samples were tested in duplicate. 1 μL of each working solution was added to 100 μL of plasma, with the final concentrations of […]. 1 μL of DMSO was added to plasma to serve as blank. The samples were incubated in a water bath at 37° C. for 120 min, and 600 μL of 10 μM tolbutamide in methanol was added to terminate the reaction. Tolbutamide also served as an internal standard. After 5 min of vortex mixing, the samples were centrifuged at 3220 g for 45 min at 4° C. to precipitate the protein. 100 μL of the supernatant was transferred to a new plate, diluted with water based on LC-MS response and peak shapes, mixed well and analyzed by LC-MS/MS.
LPA18:2 was quantified using peak area ratio (LPA18:2/internal standard), requiring no standard curve. For test compounds of different concentrations, LPA data was represented by a percentage decrease of LPA: 100-[((LPA peak area ratio of compound)/(LPA peak area ratio of control))×100]. IC50 was calculated using Graphpad Prism 6.0 software.

In a further data set the target is Autotaxin (ATX) (Homo sapiens (Human), UniProt Q13822). The data set is described as follows: ATX bioactivity assay (Amplex Red / choline oxidase / HRP fluorescence, LPC 16:0 substrate). It is filed as biochemical. Particulars: 30 min room temperature. On the procedure:
Effect Example 1 Bioactivity Assay
Preparation and Treatment
Stock Solution Preparation
A 10 mM DMSO stock solution was formulated for each compound. A 30 mM DMSO stock solution was formulated for positive control HA130.
The DMSO stock solutions were stored at room temperature in a desiccator for a short period of time or at −20° C. for a long period of time.
All compounds were serially 3-fold diluted in DMSO from 10 μM to the 10th concentration.
A 1000× positive control (10 mM, HA130) and a 1000× negative control (100% DMSO) were prepared.
The plates were shaken for 5 min.
Preparation of 1× Reaction Buffer:
5× reaction buffer and cold water were mixed well in a volume ratio of 1:4.
Preparation of 20 U/mL Choline Oxidase Stock Solution:
1 tube of choline oxide in a kit was dissolved in 1× reaction buffer. The aliquots were frozen at −20° C.
Preparation of 200 U/mL Horseradish Peroxidase (HRP) Stock Solution:
1 tube of HRP in a kit was dissolved in 1 mL of 1× reaction buffer. The aliquots were frozen at −20° C.
Preparation of 20 mM Amplex® Red Reagent (for Detection) Stock Solution
Amplex Red reagent and DMSO were equilibrated at room temperature. 1 tube of Amplex Red reagent in a kit was dissolved in 200 μL of DMSO.
a) 2×ATX ([…]), 2×HRP ([…]), 2× choline oxidase (0.2 U/mL) were added to 1× reaction buffer.
b) 20 μL of the reaction mixture was added to the plate (PE, 6007270) (refer to step a).
c) 40 nL of diluent was added to the plate using Echo (refer to “Preparation”).
d) 2×LPC (16:0) (60 mM) and 2× Amplex® Red ([…]) were prepared using 1× reaction buffer.
e) 20 μL of the mixture was added to the plate (refer to step d).
f) The plate was shaken for 30 s and allowed to stand at room temperature for 30 min.
g) The plate was examined using Envision, and the procedure was as follows: Excitation at 530 nm; and Emission at 590 nm.
Formula for Calculating % Inhibition (Percent Inhibition Rate) as Follows:
FLU: Fluorescence (fluorescence reading)
FLUpositive: Average fluorescence value in positive control wells (10 μM HA130) in the plate.
FLUvehicle: Average fluorescence value in negative control wells (0.1% DMSO) in the plate.
Calculation of IC50 and Dose-Response Curve:
IC50 of the compounds was calculated via a non-linear regression line (dose-variable slope) fitted using % inhibition and log of compound concentration. The software used was Graphpad 5.0. Y=Bottom+(Top−Bottom)/(1+10^((Log IC50−X)×Hill Slope))
X: log of inhibitor concentration

Another data set deals with CYP3A4 (Homo sapiens (Human), UniProt P08684). The data set can be described thus: Time-dependent inhibition of CYP3A4 (TDI assay, human liver microsomes). It is filed as in vitro ADME. Particulars: 10 μM, human liver microsomes, Midazolam substrate, 30 min with NADPH vs 0 min. On the procedure:
Effect Example 3. Time-Dependent Inhibition of CYP3A4
1. Preheating potassium phosphate buffer (K-buffer), pH 7.4: 100 mM potassium phosphate buffer (K-buffer) was prepared by mixing 9.5 mL of solution A with 40.5 mL of solution B, diluting to 500 mL with ultrapure water, and then adjusting to pH 7.4 with KOH or H3PO4, wherein the solution A (1M potassium dihydrogenphosphate) was prepared by dissolving 136.5 g of potassium dihydrogenphosphate in […] of ultrapure water.
2. Preparation of human liver microsome suspension (1.3 mg/mL, 1.3×, stock: 20 mg/mL): 100 μL of human liver microsome suspension (20 mg/mL) was added into […] of K-buffer.
3. Preparation of NADPH solution (4.167 mg/mL, 5 mM): 8.3 mg of NADPH was added into 2 mL of buffer.
4. Preparation of substrate solution (1.5× final): 1.5 μL of 10 mM Midazolam was added to 998.5 μL of K-buffer to yield the substrate mixture.
5. Preparation of 100× test compound, reference and blank control solutions: 3 μL of 10 mM stock solution of test compound was added to 27 μL of ACN; 3 μL of positive control stock solution was added to 27 μL of ACN; and 3 μL of DMSO was added to 27 μL of ACN to serve as blank control.
6. Primary preheating system: An NADPH-free system for 0 min incubation: 78 μL of 1.3× human liver microsome solution (step 2) was mixed with 1 μL of the 100× stock solutions of positive control, test compound, or blank control (step 5); A system containing NADPH for 30 min incubation: 78 μL of 1.3× human liver microsome solution (step 2) was mixed with 1 μL of the 100× stock solutions of positive control, test compound, or blank control (step 5).
7. Secondary preheating system: 150 μL of the substrate solution prepared in step 4 was added into a deep well plate together with the NADPH solution from step 3
8. The samples were preheated for 10 min in a 37° C. water bath.
9. Reaction procedure: (1) reaction for 0 min: 21 μL of K-buffer was added to the primary preheating system and mixed well without incubation; 20 μL of the mixture was immediately transferred into the plate of the secondary preheating system; after mixing, the secondary system was incubated in a 37° C. water bath for 15 min, and 60 μL of the reaction mixture was added into 120 μL of acetonitrile containing internal standard to terminate the reaction; and (2) reaction for 30 min: 21 μL of NADPH was added into the primary preheating system for a 30-min incubation after mixing; 20 μL of the mixture was added into the secondary preheating system prior to mixing; the mixture was incubated in a 37° C. water bath for 15 min, and 60 μL of the reaction mixture was added into 120 μL of acetonitrile containing internal standard to terminate the reaction.
10. After termination, the samples were shaken on a shaker at 600 rpm for 10 min and centrifuged at 5594 g for 15 min prior to LC-MS/MS analysis.

Chain of CYP3A4 (P08684 whole entry): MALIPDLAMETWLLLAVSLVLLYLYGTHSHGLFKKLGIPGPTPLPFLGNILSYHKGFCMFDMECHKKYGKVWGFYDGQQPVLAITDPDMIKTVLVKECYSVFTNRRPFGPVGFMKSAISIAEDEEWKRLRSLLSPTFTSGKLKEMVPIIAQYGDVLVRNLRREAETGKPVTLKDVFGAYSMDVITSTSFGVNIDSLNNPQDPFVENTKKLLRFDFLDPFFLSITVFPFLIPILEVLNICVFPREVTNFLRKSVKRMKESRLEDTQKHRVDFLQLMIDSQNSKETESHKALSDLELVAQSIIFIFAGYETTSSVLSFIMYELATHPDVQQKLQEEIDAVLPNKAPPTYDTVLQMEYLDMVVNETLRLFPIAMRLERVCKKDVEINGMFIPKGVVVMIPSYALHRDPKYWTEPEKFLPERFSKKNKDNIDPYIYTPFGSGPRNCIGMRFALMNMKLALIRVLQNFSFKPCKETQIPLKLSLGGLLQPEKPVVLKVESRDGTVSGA

On to `CCN(c1nc(-c2ccc(F)cc2)cs1)c1c2cc(N3CCN(CC(=O)N4CC(O)C4)CC3)cc(F)c2nn1CC` [Compound S-0149, 2-(4-(2-ethyl-3-(ethyl(4-(4-fluorophenyl)thiazol-2-yl)amino)-7-fluoro-2H-indazol-5-yl)piperazin-1-yl)-1-(3-hydroxyazetidin-1-yl)ethanone], for which, in the data set on LPA18:2 in mouse plasma, half-maximal inhibition (IC50) was put at 160 nM. This counts as sub-micromolar. In the case of `CCN(c1nc(-c2ccc(F)cc2)c(C#N)s1)c1c2cc(N3CCN(CC(=O)N4CC(O)C4)[C@@H](C(F)(F)F)C3)cc(F)c2nn1CC` [Compound S-0135B, (R)-2-(ethyl (2-ethyl-7-fluoro-5-(4-(2-(3-hydroxyazetidin-1-yl)-2-oxoethyl)-3-(trifluoromethyl)piperazin-1-yl)-2H-indazol-3-yl)amino)-4-(4-fluorophenyl)thiazole-5-carbonitrile], in the data set on LPA18:2 in mouse plasma, the IC50 turned out to be 167 nM.

Regarding `CCN(c1nc(-c2ccc(F)cc2)c(C#N)s1)c1c2cc(N3CCN(CC(=O)N4CC(O)C4)CC3C(F)(F)F)cc(F)c2nn1CC` (single isomer, unassigned) [Compound S-0134A, 2-(ethyl(2-ethyl-7-fluoro-5-(4-(2-(3-hydroxyazetidin-1-yl)-2-oxoethyl)-2-(trifluoromethyl)piperazin-1-yl)-2H-indazol-3-yl)amino)-4-(4-fluorophenyl)thiazole-5-carbonitrile], the IC50 turned out to be 20 nM on Autotaxin (ATX) and 116 nM in the data set on LPA18:2 in mouse plasma. Turning to `CCN(c1nc(-c2ccc(F)cc2)cs1)c1c2nc(N3CCN(CC(=O)N4CC(O)C4)CC3)cc(C)c2nn1CC` [Compound S-0151, 2-(4-(2-ethyl-3-(ethyl(4-(4-fluorophenyl)thiazol-2-yl)amino)-7-methyl-2H-pyrazolo[4,3-b]pyridin-5-yl)piperazin-1-yl)-1-(3-hydroxyazetidin-1-yl) ethanone], half-maximal inhibition in the data set on LPA18:2 in mouse plasma (IC50) was put at 1400 nM. With `CCn1nc2c(C)cc(N3CCN(CC(=O)N4CC(O)C4)CC3)nc2c1N(CCF)c1nc(-c2ccc(F)cc2)c(C#N)s1` [Compound S-0144, 2-((2-ethyl-5-(4-(2-(3-hydroxyazetidin-1-yl)-2-oxoethyl)piperazin-1-yl)-7-methyl-2H-pyrazolo[4,3-b]pyridin-3-yl)(2-fluoroethyl)amino)-4-(4-fluorophenyl)thiazole-5-carbonitrile], the values for the IC50 on Autotaxin (ATX) and in the data set with LPA18:2 in mouse plasma were 27 nM and 67 nM, respectively.

In the case of `CCN(c1nc(-c2ccc(F)cc2)c(C#N)s1)c1c2cc(N3CCN(CC(=O)N4CC(O)C4)[C@H](C(F)(F)F)C3)cc(F)c2nn1CC` [Compound S-0135A, (S)-2-(ethyl(2-ethyl-7-fluoro-5-(4-(2-(3-hydroxyazetidin-1-yl)-2-oxoethyl)-3-(trifluoromethyl)piperazin-1-yl)-2H-indazol-3-yl)amino)-4-(4-fluorophenyl)thiazole-5-carbonitrile], the figures for the IC50 against Autotaxin (ATX) and with LPA18:2 in mouse plasma were 132 nM and 442 nM, respectively.

With `CCc1nc2c(C)cc(N3CCN(CC(=O)N4CC(O)C4)CC3)cn2c1N(C)c1nc(-c2ccc(F)cc2)c(C#N)s1` [GLPG1690, reference compound], the IC50 in the data set with LPA18:2 in mouse plasma was found to be 1060 nM. In addition, the “CYP3A4 TDI % @ 10 μM” value on CYP3A4 worked out at 21.57%. For the compound `CCn1nc2c(F)cc(N3CCN(CC(=O)N4CC(O)C4)CC3C(F)(F)F)cc2c1N(C)c1nc(-c2ccc(F)cc2)c(C#N)s1` (single isomer, unassigned) [Compound S-0131B, 2-((2-ethyl-7-fluoro-5-(4-(2-(3-hydroxyazetidin-1-yl)-2-oxoethyl)-2-(trifluoromethyl)piperazin-1-yl)-2H-indazol-3-yl) (methyl)amino)-4-(4-fluorophenyl)thiazole-5-carbonitrile], the IC50 was 36 nM against Autotaxin (ATX) and 91 nM in the data set with LPA18:2 in mouse plasma. Consider `CCn1nc2c(F)cc(N3CCN(CC(=O)N4CC(O)C4)CC3C(F)(F)F)cc2c1N(C)c1nc(-c2ccc(F)cc2)c(C#N)s1` (single isomer, unassigned) [Compound S-0131A, 2-((2-ethyl-7-fluoro-5-(4-(2-(3-hydroxyazetidin-1-yl)-2-oxoethyl)-2-(trifluoromethyl)piperazin-1-yl)-2H-indazol-3-yl)(methyl)amino)-4-(4-fluorophenyl)thiazole-5-carbonitrile], for which the IC50 at Autotaxin (ATX) worked out at 47 nM; in the data set on LPA18:2 in mouse plasma, 236 nM. In the case of `CCc1nc2ncc(N3CCN(CC(=O)N4CC(O)C4)CC3)cn2c1N(CC)c1nc(-c2ccc(F)cc2)c(C#N)s1` [Compound S-0058, 2-(ethyl(2-ethyl-6-(4-(2-(3-hydroxyazetidin-1-yl)-2-oxoethyl)piperazin-1-yl)imidazo[1,2-a]pyrimidin-3-yl)amino)-4-(4-fluorophenyl)thiazole-5-carbonitrile], the IC50 against Autotaxin (ATX) turned out to be 40 nM; in the data set with LPA18:2 in mouse plasma, 373 nM. As for `CCn1nc2c(C)cc(N3CCN(CC(=O)N4CC(O)C4)CC3)nc2c1N(CC(F)F)c1nc(-c2ccc(F)cc2)c(C#N)s1` [Compound S-0141, 2-((2,2-difluoroethyl)(2-ethyl-5-(4-(2-(3-hydroxyazetidin-1-yl)-2-oxoethyl)piperazin-1-yl)-7-methyl-2H-pyrazolo[4,3-b]pyridin-3-yl)amino)-4-(4-fluorophenyl)thiazole-5-carbonitrile], the IC50 stood at 43 nM against Autotaxin (ATX) and 153 nM with LPA18:2 in mouse plasma.
